Experimental findings from PMC8617681 (Pharmaceuticals, 2021) are described below.

One series concerns the target T1, human OATP1A2 (Homo sapiens, UniProt P46721).
T1 construct: Werner Siegmund and Dr. Markus Keiser (University of Greifswald); host or cells: HEK293
T1 sequence (P46721 1-670): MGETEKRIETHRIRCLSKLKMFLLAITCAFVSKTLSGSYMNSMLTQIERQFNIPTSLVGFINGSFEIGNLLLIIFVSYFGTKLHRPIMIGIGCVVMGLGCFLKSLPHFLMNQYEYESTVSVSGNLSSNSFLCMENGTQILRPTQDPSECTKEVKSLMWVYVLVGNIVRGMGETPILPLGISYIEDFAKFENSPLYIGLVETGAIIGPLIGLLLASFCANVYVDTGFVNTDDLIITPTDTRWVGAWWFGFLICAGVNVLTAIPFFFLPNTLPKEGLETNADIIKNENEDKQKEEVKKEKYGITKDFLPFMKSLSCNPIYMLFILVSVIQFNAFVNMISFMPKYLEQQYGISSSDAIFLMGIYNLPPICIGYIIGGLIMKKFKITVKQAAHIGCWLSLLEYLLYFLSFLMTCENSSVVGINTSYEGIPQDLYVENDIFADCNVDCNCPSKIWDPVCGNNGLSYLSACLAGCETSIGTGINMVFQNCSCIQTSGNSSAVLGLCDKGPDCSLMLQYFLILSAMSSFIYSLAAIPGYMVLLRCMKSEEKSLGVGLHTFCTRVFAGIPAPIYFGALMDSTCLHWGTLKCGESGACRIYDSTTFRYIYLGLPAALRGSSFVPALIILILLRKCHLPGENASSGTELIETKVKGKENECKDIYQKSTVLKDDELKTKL
As to the kind of experiment: Cellular uptake in OATP1A2-overexpressing HEK293 cells. Conditions: 5 µM, 2.5 min incubation, HEK293 OATP1A2. The format is in vitro ADME. The procedure:
(§1) HEK293 cells, vector-transfected or human (h)SLCO1A2, hSLCO1B1 or hSLCO1B3 cDNA-transfected were kind gifts from Prof. Werner Siegmund and Dr. Markus Keiser (University of Greifswald, Greifswald, Germany). All the HEK293 cell lines were maintained in DMEM supplemented with 10% (v/v) FBS, 1% penicillin–streptomycin mix at 37 °C in 5% (v/v) CO2 and 500 μg/mL G418. Cells were first seeded in 12-well plates [coated with 50 mg/L poly (l-lysine) and 50 mg/L poly (l-ornithine)] at a density of 1.0 × 10^5 cells/well. For the uptake study, in order to induce the expression of OATP transporters, the cell culture medium was replaced with culture medium supplemented with 5 mM sodium butyrate 24 h before performing the uptake assay.
(§2) The uptake transport study was performed as described previously. […] The Krebs–Henseleit solution was prepared from Krebs–Henseleit-buffer modified powder and supplemented with 25 mM NaHCO3 and 2.5 mM CaCl2 adjusted to pH 6.4 with 1 M HCL. At 2.5 min, the incubation buffer was removed, and uptake was terminated by adding 1 mL of ice-cold Krebs–Henseleit buffer, followed by two times washing with 1 mL of ice-cold Krebs–Henseleit buffer. […] The cellular protein amount was determined by the Bradford method using 10 μL of the cell lysates with bovine serum albumin as a standard.

The target in the next series is T2, human OATP1B3 (Homo sapiens, UniProt Q9NPD5).
T2 construct: Werner Siegmund and Dr. Markus Keiser (University of Greifswald); host or cells: HEK293
T2 sequence (Q9NPD5 1-702): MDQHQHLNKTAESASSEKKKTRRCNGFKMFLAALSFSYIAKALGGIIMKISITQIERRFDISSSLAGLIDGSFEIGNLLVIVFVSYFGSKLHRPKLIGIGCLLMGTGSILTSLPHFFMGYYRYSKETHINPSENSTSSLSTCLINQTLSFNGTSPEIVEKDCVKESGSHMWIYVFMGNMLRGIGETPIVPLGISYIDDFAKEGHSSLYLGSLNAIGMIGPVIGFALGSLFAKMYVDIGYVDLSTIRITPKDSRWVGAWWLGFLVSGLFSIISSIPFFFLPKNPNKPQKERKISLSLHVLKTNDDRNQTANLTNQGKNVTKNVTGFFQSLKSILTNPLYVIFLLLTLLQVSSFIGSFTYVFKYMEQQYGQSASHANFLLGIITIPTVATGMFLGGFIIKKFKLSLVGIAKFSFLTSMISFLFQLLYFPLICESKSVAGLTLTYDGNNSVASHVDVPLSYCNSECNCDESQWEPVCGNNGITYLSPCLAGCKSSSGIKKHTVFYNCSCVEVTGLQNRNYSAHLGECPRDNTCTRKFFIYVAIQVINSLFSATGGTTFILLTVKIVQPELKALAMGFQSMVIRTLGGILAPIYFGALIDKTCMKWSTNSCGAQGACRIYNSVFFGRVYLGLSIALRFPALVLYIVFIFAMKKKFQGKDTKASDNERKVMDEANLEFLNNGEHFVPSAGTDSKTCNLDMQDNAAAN
As to the kind of experiment: Cellular uptake in OATP1B3-overexpressing HEK293 cells. The class given is in vitro ADME. Conditions: 5 µM, 2.5 min incubation, HEK293 OATP1B3. As to the method:
as §1, §2

Turning to `COc1ccc(CN2C3CC2CN(c2ccc(-c4cc(OCC(C)(C)O)cn5ncc(C#N)c45)cn2)C3)cn1` [selpercatinib], the “uptake compared to vector control cells” value at human OATP1A2 and at human OATP1B3 was “did not observe any significant increase in the uptake” each time.
